“And” between values parts separate entries of the source, which are not always exact repeats. Equal values may be shown once.
How the values were obtained:
[1] = In-vivo pharmacokinetic study in rats: passive cannabis smoke inhalation; conditions: for CL/F (apparent clearance): Rimonabant 3 mg/kg i.p.
[2] = Stability of analytes in rat plasma; type: in vitro ADME; conditions: for Autosampler stability, % Accuracy / Short-term Stability, % Accuracy: 20°C, 24 hr; for Auto sampler stability / Mean freeze-thaw stability / Mean long term stability / Mean short term stability: range over LQC and HQC; for Short-term Stability, % Accuracy / Mean freeze-thaw stability / Mean long term stability / Mean short term stability / Long-term Stability, % Accuracy / Freeze-Thaw Stability, % Accuracy: rat plasma; for Long-term Stability, % Accuracy / Freeze-Thaw Stability, % Accuracy: −70 ± 10°C; for Long-term Stability, % Accuracy: 30 days; for Freeze-Thaw Stability, % Accuracy: three cycles
[3] = male, Wistar, rat, plasma, ip, 3 mg/kg
[4] = THC, inhalation, 50 min smoke exposure, Wistar rats
[5] = male, Wistar, rat, plasma, inhaled or intranasal, 0.05 mg/kg

Cc1c(C(=O)NN2CCCCC2)nn(-c2ccc(Cl)cc2Cl)c1-c1ccc(Cl)cc1 [Rimonabant, rimonabant]
CL/F (apparent clearance) ([1]; Wistar rats): 2.0 L/h and 2.0 ± 0.3 L/h
CL/F (apparent clearance) ([1]; Wistar rats, listed as rimonabant): 2 L/h
AUC(0-inf) [1, 3]: 458 ng·h/mL
AUC(0-t) [1, 3]: 308 ± 55 ng·h/mL
Cmax [1, 3]: 88.6 ± 5.64 ng/mL
Tmax [1, 3]: 0.2 ± 0.07 h
half-life [1, 3]: 5.4 ± 0.85 h
Autosampler stability, % Accuracy ([2]; HQC 80 ng/mL): 102.30%
Autosampler stability, % Accuracy ([2]; LQC 0.3 ng/mL): 104.50%
Auto sampler stability [2]: 102.30–104.50%
Short-term Stability, % Accuracy ([2]; HQC 80 ng/mL): 104.30%
Short-term Stability, % Accuracy ([2]; LQC 0.3 ng/mL): 95.70%
Mean freeze-thaw stability [2]: 106.25–109.50%
Mean long term stability [2]: 96.90–99.40%
Mean short term stability [2]: 95.70–104.30%
Long-term Stability, % Accuracy ([2]; HQC 80 ng/mL): 99.40%
Long-term Stability, % Accuracy ([2]; LQC 0.3 ng/mL): 96.90%
Freeze-Thaw Stability, % Accuracy ([2]; HQC 80 ng/mL): 109.50%
Freeze-Thaw Stability, % Accuracy ([2]; LQC 0.3 ng/mL): 106.25%

CCCCCc1cc(O)c2c(c1)OC(C)(C)[C@@H]1CCC(C)=C[C@@H]21 [THC, delta-9-tetrahydrocannabinol]
CL (clearance) [1, 4]: 1.1 ± 0.26 L/h
Vss (volume of distribution at steady state) [1, 4]: 3.9 ± 2.07 L
AUC(0-inf) [1, 5]: 13.9 ± 3.8 ng·h/mL
AUC(0-t) [1, 5]: 12.2 ± 3 ng·h/mL
half-life [1, 5]: 3.7 ± 1.3 h
AUC(0-inf) ([1]; male, Wistar, rat, plasma, inhaled, 0.05 mg/kg): 13.9 ng·h/mL
Autosampler stability, % Accuracy ([2]; HQC 80 ng/mL): 99.97%
Autosampler stability, % Accuracy ([2]; LQC 0.3 ng/mL): 105.30%
Short-term Stability, % Accuracy ([2]; HQC 80 ng/mL): 104.40%
Short-term Stability, % Accuracy ([2]; LQC 0.3 ng/mL): 103.20%
Mean short term stability [2]: 103.20–104.40%
Long-term Stability, % Accuracy ([2]; HQC 80 ng/mL): 97.20%
Long-term Stability, % Accuracy ([2]; LQC 0.3 ng/mL): 108.30%
Freeze-Thaw Stability, % Accuracy ([2]; HQC 80 ng/mL): 109.20%
Freeze-Thaw Stability, % Accuracy ([2]; LQC 0.3 ng/mL): 112.80%

C=C(C)[C@@H]1CCC(C)=C[C@H]1c1c(O)cc(CCCCC)cc1O [CBD, cannabidiol]
Autosampler stability, % Accuracy ([2]; HQC 80 ng/mL): 96.80%
Autosampler stability, % Accuracy ([2]; LQC 0.3 ng/mL): 103.60%
Auto sampler stability [2]: 96.80–103.60%
Short-term Stability, % Accuracy ([2]; HQC 80 ng/mL): 99.60%
Short-term Stability, % Accuracy ([2]; LQC 0.3 ng/mL): 97.50%
Mean freeze-thaw stability [2]: 105.21–108.50%
Mean long term stability [2]: 103.30–106.50%
Mean short term stability [2]: 97.50–99.60%
Long-term Stability, % Accuracy ([2]; HQC 80 ng/mL): 103.30%
Long-term Stability, % Accuracy ([2]; LQC 0.3 ng/mL): 106.50%
Freeze-Thaw Stability, % Accuracy ([2]; HQC 80 ng/mL): 105.21%
Freeze-Thaw Stability, % Accuracy ([2]; LQC 0.3 ng/mL): 108.50%

Reference: publication PMC6397651 (Journal of pharmaceutical and biomedical analysis, 2018)
